BindingDB's records for doi:10.1016/j.bmcl.2008.02.015 (Deltagen Research Laboratories (Former Combichem), 2008)

Assay: Antagonist activity at human CCR2 in THP1 cells assessed as inhibition of MCP1-induced chemotaxis

Compound	IC50
O=C(CNC(=O)c1cccc(C(F)(F)F)c1)N[C@@H]1CCN(Cc2ccc(OC(F)(F)F)cc2)C1	103 nM
CSc1ccc(CN2CC[C@@H](NC(=O)CNC(=O)c3cccc(C(F)(F)F)c3)C2)cc1	21 nM
O=C(CNC(=O)c1cccc(C(F)(F)F)c1)N[C@@H]1CCN(Cc2ccccc2)C1	418 nM
COc1cc(CN2CC[C@@H](NC(=O)CNC(=O)c3cc(C(F)(F)F)ccc3N)C2)ccc1O	14 nM
COc1ccc(CN2CC[C@@H](NC(=O)CNC(=O)c3cc(C(F)(F)F)ccc3N)C2)cc1N	8.8 nM
COc1ccc(CN2CC[C@@H](NC(=O)CNC(=O)c3cc(C(F)(F)F)ccc3N)C2)cc1	11 nM
Nc1ccc(C(F)(F)F)cc1C(=O)NCC(=O)N[C@@H]1CCN(Cc2ccc(Br)cc2)C1	2.6 nM
Nc1ccc(I)cc1C(=O)NCC(=O)N[C@@H]1CCN(Cc2ccc(Cl)cc2)C1	22 nM
Cc1ccc(CN2CC[C@@H](NC(=O)CNC(=O)c3cc(C(F)(F)F)ccc3N)C2)cc1N	12 nM
Nc1cc(CN2CC[C@@H](NC(=O)CNC(=O)c3cc(C(F)(F)F)ccc3N)C2)ccc1Cl	11 nM
Nc1ccc(C(F)(F)F)cc1C(=O)NCC(=O)N[C@@H]1CCN(Cc2ccc(O)cc2)C1	5.1 nM
C=Cc1ccc(CN2CC[C@@H](NC(=O)CNC(=O)c3cc(C(F)(F)F)ccc3N)C2)cc1	3.9 nM
CCc1ccc(CN2CC[C@@H](NC(=O)CNC(=O)c3cc(C(F)(F)F)ccc3N)C2)cc1	0.89 nM
Cc1ccc(CN2CC[C@@H](NC(=O)CNC(=O)c3cc(C(F)(F)F)ccc3N)C2)cc1	3.1 nM
Nc1ccc(C(F)(F)F)cc1C(=O)NCC(=O)N[C@@H]1CCN(Cc2ccc(Cl)cc2)C1	3.6 nM
Cc1ccc(CN2CC[C@@H](NC(=O)CNC(=O)c3cccc(C(F)(F)F)c3)C2)cc1	12.4 nM
Nc1ccc(OC(F)(F)F)cc1C(=O)NCC(=O)N[C@@H]1CCN(Cc2ccc(Cl)cc2)C1	43 nM
Nc1ccc([N+](=O)[O-])cc1C(=O)NCC(=O)N[C@@H]1CCN(Cc2ccc(Cl)cc2)C1	43 nM
O=C(CNC(=O)c1cccc([N+](=O)[O-])c1)N[C@@H]1CCN(Cc2ccc(Cl)cc2)C1	445 nM

Compound	IC50
O=C(CNC(=O)c1cccc(OC(F)(F)F)c1)N[C@@H]1CCN(Cc2ccc(Cl)cc2)C1	360 nM
O=C(CNC(=O)c1cccc(Br)c1)N[C@@H]1CCN(Cc2ccc(Cl)cc2)C1	473 nM
O=C(CNC(=O)c1cccc(C(F)(F)F)c1)N[C@@H]1CCN(Cc2ccccc2-c2ccc3ccccc3c2)C1	74 nM
COc1cc(CN2CC[C@@H](NC(=O)CNC(=O)c3cccc(C(F)(F)F)c3)C2)ccc1O	77 nM
O=C(CNC(=O)c1cccc(C(F)(F)F)c1)N[C@@H]1CCN(Cc2ccc(F)cc2)C1	121 nM
O=C(CNC(=O)c1cccc(C(F)(F)F)c1)N[C@@H]1CCN(Cc2ccc(O)cc2)C1	5.5 nM
C=Cc1ccc(CN2CC[C@@H](NC(=O)CNC(=O)c3cccc(C(F)(F)F)c3)C2)cc1	6.2 nM
O=C(CNC(=O)c1cccc(C(F)(F)F)c1)N[C@@H]1CCN(Cc2ccc(Br)cc2)C1	21 nM
CCc1ccc(CN2CC[C@@H](NC(=O)CNC(=O)c3cccc(C(F)(F)F)c3)C2)cc1	9.4 nM
COc1ccc(CN2CC[C@@H](NC(=O)CNC(=O)c3cccc(C(F)(F)F)c3)C2)cc1	35 nM
Cc1ccccc1CN1CC[C@@H](NC(=O)CNC(=O)c2cccc(C(F)(F)F)c2)C1	127 nM
O=C(CNC(=O)c1cccc(C(F)(F)F)c1)N[C@@H]1CCN(Cc2ccccc2Cl)C1	418 nM
Cc1ccc(CN2CC[C@@H](NC(=O)CNC(=O)c3cc(C(F)(F)F)ccc3N)C2)c(C)c1	0.83 nM
O=C(CCNC(=O)c1cccc(C(F)(F)F)c1)N[C@@H]1CCN(Cc2ccc(Cl)cc2)C1	10000 nM
CC(NC(=O)c1cccc(C(F)(F)F)c1)C(=O)N[C@@H]1CCN(Cc2ccc(Cl)cc2)C1 (stereo partly drawn)	22000 nM
COc1ccc(CN2CC[C@@H](NC(=O)CNC(=O)c3cc(C(F)(F)F)ccc3N)C2)cc1O	9.2 nM
Nc1cc(CN2CC[C@@H](NC(=O)CNC(=O)c3cc(C(F)(F)F)ccc3N)C2)ccc1O	18 nM
Cc1ccc(CN2CC[C@@H](NC(=O)CNC(=O)c3cccc(C(F)(F)F)c3)C2)c(C)c1 [(R)-N-(2-(1-(2,4-dimethylbenzyl)pyrrolidin-3-ylamino)-2-oxoethyl)-3-(trifluoromethyl)benzamide]	16 nM
O=C(CNC(=O)c1cccc(C(F)(F)F)c1)N[C@@H]1CCN(Cc2ccc(Cl)cc2)C1 [(R)-N-(2-(1-(4-chlorobenzyl)pyrrolidin-3-ylamino)-2-oxoethyl)-3-(trifluoromethyl)benzamide]	24 nM
